Results: patent publication US20180221329A1, “CIS- AND TRANS-SUFFRUTICOSOL D AS THERAPEUTIC AGENTS” (MIDDLE TENNESSEE STATE UNIVERSITY, priority 2015, published 2018)

Tests used:
Assay type in all cases: cell-based, human
[1] = test system: NF-κB p65 nuclear translocation; assay: NF-κB nuclear translocation assay (HCS); conditions: 4 h, then TNF-α 30 min, A549
Protocol: FIGS. 6A and 6B depict inhibition of NF-κB translocation by cis- and trans-suffruticosol D in A549 cells. A549 cells were treated with various concentrations of cis- or trans-suffruticosol D for 4 h and then stimulated with […] TNF-α for 30 min. Cells treated with TNF-α alone or the vehicle only served as controls. The NF-κB translocation index was measured by the fluorescent intensity difference between the nucleus and cytoplasm.
NF-κB nuclear translocation assay. A Multiplexed NF-κB activation HCS Kit (Thermo Scientific, Waltham, Mass., USA) was used to assess NF-κB nuclear translocation. A549 cells were pre-treated with different concentrations of cis- or trans-suffruticosol D for 4 h, then 10 ng/mL of TNF-α was added to the cells for an additional 30 min. After treatment, cells were fixed and permeabilized prior to detection. NF-κB distribution was detected by adding NF-κB p65 primary antibodies and then staining with a secondary antibody conjugated with DyLight 549 and Hoechst dye (Thermo Scientific, Waltham, Mass., USA). […] Cells were imaged using an Arrayscan VTI HCS reader (Thermo Scientific, Waltham, Mass., USA). Data on the mean difference of NF-κB fluorescent intensity between the nuclear and cytoplasmic areas were collected and analyzed by vHCS Scan software.

[2] = test system: apoptotic proteins in A549 cells; assay: Apoptosis antibody array; conditions: 50 μM, 6 h
Protocol: F, Effect of cis- or trans-suffruticosol D on key regulatory proteins of apoptosis, Hsp60, Hsp70, survivin, and X-linked inhibitor of apoptosis protein (XIAP) (n=4).
Apoptosis antibody array. The Human Apoptosis Antibody Array Kit (RayBiotech, Inc., Norcross, Ga. USA) was used to evaluate apoptotic protein expression according to the manufacturer's instructions. A549 cells were plated at 8,000 cells/well intensity in a 96-well plate and then treated with cis or trans-suffruticosol D at a concentration of 50 μM for 6 h. The cells were lysed in lysis buffer with protease inhibitors. The cell lysates were concentrated using a protein concentration column (EMD Millipore, Billerica, Mass., USA) to a total protein concentration of 2 mg/ml. The samples were then diluted 10 fold with assay buffer and incubated with an array membrane for 2 h at room temperature, and washed with washing buffer five times. Subsequently, the cocktail of biotin-conjugated antibody mix was added to the membrane and incubated overnight at 4° C. The samples were then incubated with HRP-conjugated streptavidin for 2 h at room temperature and chemiluminescence substrate was used to detect the signal. Image Studio software (LI-COR Biotechnology) was used to quantify the intensity of each array dot and then normalized to the internal control.

phosphorylated NF-κB p65 = assay: Western blotting analysis of TNF-α-induced NF-κB p65 phosphorylation; conditions: 50 μM, 3 h, then 10 ng/mL TNF-α 30 min, A549
Protocol: Western blotting analysis. A549 cells were treated with 50 μM of cis- or trans-suffruticosol D for 3 h then incubated with 10 ng/mL of TNF-α for 30 min. Cells treated with the NF-κB inhibitor Bay11-7082 (10 μM) (Sigma-Aldrich) were used as a positive control, and cells treated with vehicle only were used as a negative control. After treatment, the cells were lysed using M-PER mammalian protein extraction reagent (Pierce PERBIO, Rockford, Ill.) containing proteinase and phosphatase inhibitors (Sigma-Aldrich, USA) and centrifuged at 13,000 rpm for 5 min at 4° C. A Pierce BCA protein assay kit (Thermo Fisher Scientific, Waltham, Mass., USA) was used to determined protein concentrations. Proteins were separated on a 4-20% Tris Glycine gel (Thermo Fisher Scientific, Waltham, Mass., USA), and electrophoretically transferred to a PVDF membrane. The following primary antibodies were used: phosphorylated-NF-κB p65, NF-κB p65 (Cell Signaling Technology, Danver, Mass.) and actin (Santa Cruz Biotechnology, Dallas, Tex.). The membrane was incubated with the primary antibodies at a 1:1000 concentration at 4° C. overnight. After washing with 1×PBS 5 times, the membrane was incubated for 2 h at room temperature with HRP linked anti-rabbit IgG secondary antibodies. […]

A549 cells = assay: Apoptosis assay (Annexin V/7-AAD flow cytometry); conditions: 24 h
Protocol: FIGS. 2A-E depict induction of apoptosis by cis- and trans-suffruticosol D in A549 cells. After 24 h treatment by cis- or trans-suffruticosol D, A549 cells were stained with Annexin V/7-amino-actinomycin D (7-AAD) and the percentage of apoptotic cells, as measured by fluorescence intensity, was assessed by flow cytometry. Cells treated with the vehicle, 1% dimethylsulfoxide, DMSO, only served as a negative control.
Apoptosis assay. The FlowCellect Annexin Red Kit (EMD Millipore, Billerica, Mass., USA) was used to determine the apoptosis rate in A549 cells according to the manufacturer's instructions. Briefly, A549 cells were plated in 96-well plates. After a 24 h treatment with cis- or trans-suffruticosol D at concentrations of 100, 32, and 10 μM, the floating and attached cells were collected for analysis. The cells were centrifuged at 700×g for 7 min and were resuspended in 100 μL Assay Buffer (EMD Millipore, Billerica, Mass., USA). Afterwards, the cells were stained with annexin-V for 15 min and 7-amino-actinomycin D (7-AAD) for 5 min, and examined with a Guava EasyCyte Flow Cytometer (EMD Millipore, Billerica, Mass., USA). Data was analyzed using Guava InCyte software.

Oc1ccc(/C=C/c2c3c(cc4c2[C@@H](c2cc(O)cc(O)c2)[C@H](c2ccc(O)cc2)O4)O[C@H](c2ccc(O)cc2)[C@@H]3c2cc(O)cc(O)c2)cc1 [trans-suffruticosol D]
inhibition of NF-κB activation (nuclear translocation index) ([1]; all the tested concentrations): significant inhibition
Hsp60 expression [2]: significant down regulation
Hsp70 expression [2]: significant down regulation
X-linked inhibitor of apoptosis protein (XIAP) expression [2]: significant down regulation
survivin expression [2]: significant down regulation
expression of phosphorylated NF-κB p65 upon TNF-α stimulation (phosphorylated NF-κB p65): almost completely blocked
A549 cells induced into apoptosis (A549 cells; 10 μM): 30.1%
A549 cells induced into apoptosis (A549 cells; 32 μM): 39.8%
A549 cells induced into apoptosis (A549 cells; 100 μM): 41.9%

Oc1ccc(C=Cc2c3c(cc4c2[C@@H](c2cc(O)cc(O)c2)[C@H](c2ccc(O)cc2)O4)O[C@H](c2ccc(O)cc2)[C@@H]3c2cc(O)cc(O)c2)cc1 [cis-suffruticosol D]
inhibition of NF-κB activation (nuclear translocation index) ([1]; 100 μM only): significant inhibition
Hsp60 expression [2]: significant down regulation
Hsp70 expression [2]: significant down regulation
X-linked inhibitor of apoptosis protein (XIAP) expression [2]: significant down regulation
survivin expression [2]: significant down regulation
expression of phosphorylated NF-κB p65 upon TNF-α stimulation (phosphorylated NF-κB p65): blocked as effectively as the blockage caused by the Bay11-7082 inhibitor control
A549 cells induced into apoptosis (A549 cells; 10 μM): 22.2%
A549 cells induced into apoptosis (A549 cells; 32 μM): 27.1%
A549 cells induced into apoptosis (A549 cells; 100 μM): 45.3%
